≈ marks a conversion by molar mass, not a printed value.
Key:
Test in all cases: In vitro MIC, 2010 surveillance isolates
[1] = system: K. oxytoca; type: cell-based
[2] = system: A. baumanii; type: cell-based
[3] = system: K. pneumoniae ESBL−; type: cell-based, Klebsiella pneumoniae
[4] = system: E. coli ESBL−; type: cell-based, Escherichia coli
[5] = system: E. cloacae CeftazS; type: cell-based
[6] = system: E. coli ESBL+; type: cell-based, Escherichia coli
[7] = system: K. pneumoniae ESBL+; type: cell-based, Klebsiella pneumoniae
[8] = system: Acinetobacter spp; type: cell-based
[9] = system: E. cloacae CeftazR; type: cell-based
[10] = system: Enterobacter spp; type: cell-based

SMILES: NCC[C@H](O)C(=O)N[C@@H]1C[C@H](N)[C@@H](O[C@H]2O[C@H](CN)[C@@H](O)[C@H](O)[C@H]2O)[C@H](O)[C@H]1O[C@H]1O[C@H](CO)[C@@H](O)[C@H](N)[C@H]1O [Amikacin]
- % R (resistance) ([1]; Asia/Pac, Eucast breakpoints): 0%
- MIC90 ([1]; Asia/Pac, N=17): 2 µg/mL (≈ 3.42 µM)
- % R (resistance) ([1]; Europe, Eucast breakpoints): 0%
- MIC90 ([1]; Europe, N=158): 2 µg/mL (≈ 3.42 µM)
- % R (resistance) ([1]; L. Amer, CLSI breakpoints): 8%
- MIC90 ([1]; L. Amer, N=25): 32 µg/mL (≈ 54.6 µM)
- % R (resistance) ([1]; N America, CLSI breakpoints): 0%
- MIC90 ([1]; N America, N=177): 2 µg/mL (≈ 3.42 µM)
- % R (resistance) ([2]; Asia/Pac, Eucast breakpoints): 74.9%
- MIC90 ([2]; Asia/Pac, N=275): > 32 µg/mL
- % R (resistance) ([2]; Europe, Eucast breakpoints): 58.6%
- MIC90 ([2]; Europe, N=145): > 32 µg/mL
- % R (resistance) ([2]; L. Amer, CLSI breakpoints): 57.5%
- MIC90 ([2]; L. Amer, N=275): > 32 µg/mL
- % R (resistance) ([2]; N America, CLSI breakpoints): 42.9%
- MIC90 ([2]; N America, N=154): > 32 µg/mL
- % R (resistance) ([3]; Asia/Pac, Eucast breakpoints): 0.5%
- MIC90 ([3]; Asia/Pac, N=189): 2 µg/mL (≈ 3.42 µM)
- % R (resistance) ([3]; Europe, Eucast breakpoints): 0.3%
- MIC90 ([3]; Europe, N=361): 2 µg/mL (≈ 3.42 µM)
- % R (resistance) ([3]; L. Amer, CLSI breakpoints): 0%
- MIC90 ([3]; L. Amer, N=160): 2 µg/mL (≈ 3.42 µM)
- % R (resistance) ([3]; N America, CLSI breakpoints): 0%
- MIC90 ([3]; N America, N=671): 2 µg/mL (≈ 3.42 µM)
- % R (resistance) ([4]; Asia/Pac, Eucast breakpoints): 0.4%
- MIC90 ([4]; Asia/Pac, N=282): 4 µg/mL (≈ 6.83 µM)
- % R (resistance) ([4]; Europe, Eucast breakpoints): 0.3%
- MIC90 ([4]; Europe, N=1533): 4 µg/mL (≈ 6.83 µM)
- % R (resistance) ([4]; L. Amer, CLSI breakpoints): 0%
- MIC90 ([4]; L. Amer, N=389): 4 µg/mL (≈ 6.83 µM)
- % R (resistance) ([4]; N America, CLSI breakpoints): 0%
- MIC90 ([4]; N America, N=1172): 4 µg/mL (≈ 6.83 µM)
- % R (resistance) ([5]; Asia/Pac, Eucast breakpoints): 1%
- MIC90 ([5]; Asia/Pac, N=100): 2 µg/mL (≈ 3.42 µM)
- % R (resistance) ([5]; Europe, Eucast breakpoints): 1.1%
- MIC90 ([5]; Europe, N=183): 2 µg/mL (≈ 3.42 µM)
- % R (resistance) ([5]; L. Amer, CLSI breakpoints): 0%
- MIC90 ([5]; L. Amer, N=57): 16 µg/mL (≈ 27.3 µM)
- % R (resistance) ([5]; N America, CLSI breakpoints): 0%
- MIC90 ([5]; N America, N=210): 2 µg/mL (≈ 3.42 µM)
- % R (resistance) ([6]; Asia/Pac, Eucast breakpoints): 8.2%
- MIC90 ([6]; Asia/Pac, N=219): 8 µg/mL (≈ 13.7 µM)
- % R (resistance) ([6]; Europe, Eucast breakpoints): 2.2%
- MIC90 ([6]; Europe, N=274): 8 µg/mL (≈ 13.7 µM)
- % R (resistance) ([6]; L. Amer, CLSI breakpoints): 1.2%
- MIC90 ([6]; L. Amer, N=168): 8 µg/mL (≈ 13.7 µM)
- % R (resistance) ([6]; N America, CLSI breakpoints): 0.7%
- MIC90 ([6]; N America, N=134): 8 µg/mL (≈ 13.7 µM)
- % R (resistance) ([7]; Asia/Pac, Eucast breakpoints): 23.4%
- MIC90 ([7]; Asia/Pac, N=124): > 32 µg/mL
- % R (resistance) ([7]; Europe, Eucast breakpoints): 15.9%
- MIC90 ([7]; Europe, N=151): 32 µg/mL (≈ 54.6 µM)
- % R (resistance) ([7]; L. Amer, CLSI breakpoints): 14.8%
- MIC90 ([7]; L. Amer, N=209): > 32 µg/mL
- % R (resistance) ([7]; N America, CLSI breakpoints): 2.8%
- MIC90 ([7]; N America, N=108): 32 µg/mL (≈ 54.6 µM)
- % R (resistance) ([8]; Asia/Pac, Eucast breakpoints): 22.2%
- % R (resistance) ([8]; Europe, Eucast breakpoints): 39.5%
- MIC90 ([8]; Europe, N=43): > 32 µg/mL
- % R (resistance) ([8]; L. Amer, CLSI breakpoints): 22.2%
- % R (resistance) ([8]; N America, CLSI breakpoints): 9.5%
- MIC90 ([8]; N America, N=42): 8 µg/mL (≈ 13.7 µM)
- % R (resistance) ([9]; Asia/Pac, Eucast breakpoints): 9.5%
- MIC90 ([9]; Asia/Pac, N=63): 16 µg/mL (≈ 27.3 µM)
- % R (resistance) ([9]; Europe, Eucast breakpoints): 1.4%
- MIC90 ([9]; Europe, N=72): 8 µg/mL (≈ 13.7 µM)
- % R (resistance) ([9]; L. Amer, CLSI breakpoints): 7.1%
- MIC90 ([9]; L. Amer, N=42): 16 µg/mL (≈ 27.3 µM)
- % R (resistance) ([9]; N America, CLSI breakpoints): 0%
- MIC90 ([9]; N America, N=77): 4 µg/mL (≈ 6.83 µM)
- % R (resistance) ([10]; Asia/Pac, Eucast breakpoints): 3.8%
- MIC90 ([10]; Asia/Pac, N=52): 2 µg/mL (≈ 3.42 µM)
- % R (resistance) ([10]; Europe, Eucast breakpoints): 0%
- MIC90 ([10]; Europe, N=82): 4 µg/mL (≈ 6.83 µM)
- % R (resistance) ([10]; L. Amer, CLSI breakpoints): 0%
- MIC90 ([10]; L. Amer, N=42): 4 µg/mL (≈ 6.83 µM)
- % R (resistance) ([10]; N America, CLSI breakpoints): 1%
- MIC90 ([10]; N America, N=101): 2 µg/mL (≈ 3.42 µM)

Reference: US10238670B2, “9-aminomethyl minocycline compounds and methods of use thereof in urinary tract infection (UTI) treatment” (Paratek Pharmaceuticals, Inc., priority 2016, dated 2019)
